This passage reports IC50 results from US8466186B2, “Compounds” (Boehringer Ingelheim International GmbH, priority 2010, dated 2013).

The test addresses T1, recombinant human mPGES-1 (Homo sapiens, UniProt O14684).
T1 construct: made in house; host or cells: Rosetta E. coli (membrane/microsome fraction)
T1 sequence (O14684 1-152): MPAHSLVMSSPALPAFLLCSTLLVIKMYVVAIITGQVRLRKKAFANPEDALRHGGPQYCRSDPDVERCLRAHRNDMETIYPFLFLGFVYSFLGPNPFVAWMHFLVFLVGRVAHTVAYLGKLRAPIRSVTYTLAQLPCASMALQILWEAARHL
The test is described as follows: Assay A: mPGES-1 enzyme assay (HTRF detection of PGE2). Type of test: biochemical. Conditions: biological assay A; microsomes from E. coli expressing recombinant human mPGES-1; read-out: mPGES-1 inhibitory effect IC50. An excerpt: The aim of this assay is to determine the affinity of a test compound for the mPGES-1 enzyme.
• 1. Riendeau, D., R. Aspiotis, D. Ethier, Y. Gareau, E. Grimm, J. Guay, S. Guiral, H. Juteau, J. Mancini, N. Methot, J. Rubin, and R. Friesen, Inhibitors of the inducible microsomal prostaglandin E2 synthase (mPGES-1) derived from MK-886. Bioorg Med Chem Lett, 2005. 15(14): p. 3352-3355. • 2. Cote, B., L. Boulet, C. Brideau, D. Claveau, D. Ethier, R. Frenette, M. Gagnon, A. Giroux, J. Guay, S. Guiral, J. Mancini, E. Martins, F. Masse, N. Methot, D. Riendeau, J. Rubin, D. Xu, H. Yu, Y. Ducharme, and R. Friesen, Substituted phenanthrene imidazoles as potent, selective, and orally active mPGES-1 inhibitors. Bioorg Med Chem Lett, 2007. 17(24): p. 6816-6820. Assay A: mPGES-1 Enzyme Assay List of Reagents Used: • Glutathione (Sigma, G-4251) • Freeze culture in Rosetta E coli expression strain. • LB growth media with Ampillicillin (Amp) final concentration in culture 50 μg/mL • Chloroamphenicol stock 34 mg/mL (chloro) final concentration in culture 34 μg/mL • Sterile growth flasks for 500 mL-1 liter cultures • 0.1 M KP, buffer pH 7.4 • 9.25% HCl • PGH2 (0.25 mM) • Fe (II) Cl2 tetrahydrate, 99% (Sigma, 220229) • 384-well plate with compounds • 96-well plate, polypropylene (Thermo fast 96 skirted VWR) • 384-well plate polypropylene PCR plate (Greiner 785201) • Greiner 384-well plate pp (In vitro cat. no. 781280) • Adhesive sealing film for 96-well plates (Sigma-Aldrich) • Aluminium foil (PCR foil, 310-0030-127-471 from Labora) • PBS (GIBCO 14040) • Prostaglandin E2 Assay (Cisbio, cat. no. 62P2APEC) • Biomek FX robot (Beckman Coulter) • Biomek NX robot (Beckman Coulter) • Multidrop; micro or combi (ThermoLabsystems) • Plate reader: Safire2 (Tecan)
Microsomes from Rosetta E. coli bacteria expressing recombinant human mPGES-1 can be derived as described below:
Inoculate 5 mL LB with Amp and Chloro with bacteria from freeze culture. Incubate overnight at 37° C. with 200 rpm. Thereafter, inoculate 500-800 mL LB containing Amp and Chloro with the 5 mL on culture and grow to OD640 of 0.6-0.8. Chill the culture to +4° C. before induction. Induce the culture with IPTG at a final concentration of 400 μM. Express the protein at room temp 18-23° C. with 200 rpm shaking overnight.
The following steps can be performed on the following day: • 1. Spin down the cells in 250 mL centrifuge flasks for 15 min at 7000 rpm • 2. Dissolve the pellet from 250 mL culture in 12.5 mL homogenization buffer • 3. Disintegrate the cells by sonication, 4×10 seconds at 35% amplitude • 4. Add 2.5 mL MgCl2 (100 mM) and DNase 12.5 μL (0.8 mg/mL) and incubate on ice for 30 min • 5. Spin down the bacteria debris and save the supernatant, 7000 rpm for 15 min • 6. Isolate the protein containing membranes in the supernatant by ultracentrifugation 45000×g for 1 hour. • 7. Discard the supernatant and dissolve the pellet in 20 mM KPi buffer and aliquot the enzyme and store aliquots at −80° C.
Before each experiment is performed an aliquot of the enzyme is thawed and it can then be dissolved in 0.1 M KP, pH 7.4 buffer containing 2.5 mM GSH. 50 μL of this enzyme solution is subsequently dispensed in a 384-well plate at room temperature. 0.5 μL of the inhibitor dissolved in DMSO is thereafter added to each well and incubated for 25 minutes at room temperature. Subsequently, 2 μL of PGH2 dissolved in an appropriate solvent is added to each well and after one minute at room temperature, the acidified stop solution containing FeCl2 is added. 4 μL of the total volume is transferred to a separate plate and diluted 750-fold in two separate steps before quantification of PGE2.
In order to quantitate the amount of PGE2 that has been formed, a homogenous time resolved fluorescent (HTRF) detection of PGE2 can be performed by the use of a commercially available kit from CisBio essentially according to the manufacturer's protocol. […]
For orientation: Time-resolved FRET reads energy transfer from a long-lived donor to a nearby acceptor.
For orientation: IC50 means the point on the concentration scale where inhibition reaches its midpoint. For the molecule `Cn1c(Nc2cc(CNC(=O)C(C)(N)C(F)(F)F)ccc2Cl)nc2cc(Cl)c(N3CCCC(C(F)(F)F)C3)cc21` (centres unmarked) [Example 1, 2-Amino-N-{4-chloro-3-[5-chloro-1-methyl-6-(3-(trifluoromethyl)piperidin-1-yl)-1H-benzo[d]imidazol-2-ylamino]benzyl}-3,3,3-trifluoro-2-methylpropanamide], the 50% inhibitory concentration (IC50) was determined as 2.5 nM.
As for `CC(C)(C)C(=O)NCc1ccc(Cl)c(Nc2nc3cc(N4CCC(F)(F)C4)c(Cl)cc3[nH]2)c1` [Example 2, N-{4-Chloro-3-[6-chloro-5-(3,3-difluoropyrrolidin-1-yl)-1H-benzo[d]imidazol-2-ylamino]benzyl}-2,2-dimethyl-propionamide], the half-maximal inhibitory concentration (IC50) stood at 19 nM.
Take `CN(C)CC1CCN(c2cc3[nH]c(Nc4cc(CNC(=O)C(C)(C)C)ccc4Cl)nc3cc2Cl)C1` (centres unmarked) [Example 3, N-{4-Chloro-3-[5-chloro-6-(3-dimethylaminomethyl-pyrrolidin-1-yl)-1H-benzimidazol-2-ylamino]-benzyl}-2,2-dimethyl-propionamide]: the IC50 amounted to 715 nM.
The result for `CC(C)(C)C(=O)NCc1ccc(Cl)c(Nc2nc3cc(Cl)c(N4CCC5(CC5)C4)cc3[nH]2)c1` [Example 4, N-{3-[6-(5-Aza-spiro[2.4]hept-5-yl)-5-chloro-1H-benzimidazol-2-ylamino]-4-chloro-benzyl}-2,2-dimethyl-propionamide] reads 24 nM; that for `Cn1c(Nc2c(Cl)ccc(CNC(=O)C(C)(C)C)c2Cl)nc2cc(Cl)c(N3CCC(C(F)(F)F)CC3)cc21` [Example 5, N-{2,4-Dichloro-3-[5-chloro-1-methyl-6-(4-trifluoromethyl-piperidin-1-yl)-1H-benzimidazol-2-ylamino]-benzyl}-2,2-dimethyl-propionamide], 3.8 nM; that for `CN(C)C(=O)C1CCCN1c1cc2[nH]c(Nc3cc(CNC(=O)C(C)(C)C)ccc3Cl)nc2cc1Cl` (centres unmarked) [Example 6, N-{4-Chloro-3-[5-chloro-6-(2-dimethylcarbamoyl-pyrrolidin-1-yl)-1H-benzimidazol-2-ylamino]-benzyl}-2,2-dimethyl-propionamide], 215 nM.
With `CN(C)CC1CCCN1c1cc2[nH]c(Nc3cc(CNC(=O)C(C)(C)C)ccc3Cl)nc2cc1Cl` (centres unmarked) [Example 7, N-{4-Chloro-3-[5-chloro-6-(2-dimethylaminomethyl-pyrrolidin-1-yl)-1H-benzimidazol-2-ylamino]-benzyl}-2,2-dimethyl-propionamide], the half-maximal inhibitory concentration (IC50) came to 74 nM.
`CC(C)(C)C(=O)NCc1ccc(Cl)c(Nc2nc3cc(Cl)c(N4CCC(C#N)C4)cc3[nH]2)c1` (centres unmarked) [Example 8, N-{4-Chloro-3-[5-chloro-6-(3-cyano-pyrrolidin-1-yl)-1H-benzimidazol-2-ylamino]-benzyl}-2,2-dimethyl-propionamide]: the 50% inhibitory concentration (IC50) turned out to be 106 nM.
Take `O=C(NCc1ccc(Cl)c(Nc2nc3cc(Cl)c(N4CCC[C@@H]4CO)cc3[nH]2)c1)C1(C(F)(F)F)CC1` [Example 9, (R)—N-{4-Chloro-3-[5-chloro-6-(2-hydroxymethyl-pyrrolidin-1-yl)-1H-benzimidazol-2-ylamino]-benzyl}-1-trifluoromethyl-cyclopropanecarboxamide]: the concentration for half-maximal inhibition (IC50) is 143 nM.
The result for `Cn1c(Nc2cc(CNC(=O)C3(C(F)(F)F)CC3)ccc2Cl)nc2cc(Cl)c(N3CCOCC3)cc21` [Example 10] reads 31 nM; that for `CN1CCN(c2cc3c(cc2Cl)nc(Nc2cc(CNC(=O)C4(C(F)(F)F)CC4)ccc2Cl)n3C)CC1` [Example 11, N-{4-Chloro-3-[5-chloro-1-methyl-6-(4-methyl-piperazin-1-yl)-1H-benzimidazol-2-ylamino]-benzyl}-1-trifluoromethyl-cyclopropanecarboxamide], 140 nM.
Consider `CC(C(=O)NCc1ccc(Cl)c(Nc2nc3cc(Cl)c(N4CCCC(C(F)(F)F)C4)cc3n2C)c1)C(F)(F)F` (centres unmarked) [Example 13], for which the IC50 was 2.6 nM.
Turning to `Cn1c(Nc2cc(CNC(=O)C(C)(O)C(F)(F)F)ccc2Cl)nc2cc(Cl)c(N3CCCC(C(F)(F)F)C3)cc21` (centres unmarked) [Example 14], the IC50 amounted to 4.8 nM.
For the molecule `Cn1c(Nc2cc(CNC(=O)C(C)(F)F)ccc2Cl)nc2cc(Cl)c(N3CCCC(C(F)(F)F)C3)cc21` (centres unmarked) [Example 15], the concentration for half-maximal inhibition (IC50) was 3 nM.
As to `CCC(C)(CC)C(=O)NCc1ccc(Cl)c(Nc2nc3cc(N4CCCC4)ccc3[nH]2)c1` [Example 16], the half-inhibitory concentration (IC50) was determined as 15 nM.
Regarding `CC(C)(C(=O)NCc1ccc(Cl)c(Nc2nc3cc(N4CCCC4)ccc3[nH]2)c1)C(F)(F)F` [Example 17], the IC50 amounted to 24 nM.
As for `CCCC(C)(C)C(=O)NCc1ccc(Cl)c(Nc2nc3cc(N4CCCC4)ccc3[nH]2)c1` [Example 18], the half-maximal inhibitory concentration (IC50) is 79 nM.
Take `CC1CCCCC1C(=O)NCc1ccc(Cl)c(Nc2nc3cc(N4CCCC4)ccc3[nH]2)c1` (centres unmarked) [Example 19]: the IC50 stood at 52 nM.
As for `CC(C)(C)C(=O)NCc1ccc(Cl)c(Nc2nc3cc(N4CCCC4)ccc3[nH]2)c1` [Example 20], the half-inhibitory concentration (IC50) was greater than 100 nM.
Turning to `O=C(NCc1ccc(Cl)c(Nc2nc3cc(N4CCCC4)ccc3[nH]2)c1)c1ccc(OCc2ccccc2)cc1` [Example 21], the 50% inhibitory concentration (IC50) stood at 30 nM.
In the case of `CC1(C(=O)NCc2ccc(Cl)c(Nc3nc4cc(N5CCCC5)ccc4[nH]3)c2)CCCC1` [Example 28], the 50% inhibitory concentration (IC50) turned out to be 24 nM.
Regarding `O=S(=O)(NCc1ccc(Cl)c(Nc2nc3cc(N4CCCC4)ccc3[nH]2)c1)c1ccco1` [Example 29], the IC50 amounted to 105 nM.
As for `O=S(=O)(NCc1ccc(Cl)c(Nc2nc3ccc(N4CCCC4)cc3[nH]2)c1)C1CC1` [Example 30, N-{4-Chloro-3-[5-(pyrrolidin-1-yl)-1H-benzimidazol-2-ylamino]-benzyl}cyclopropylsulfonamide], the IC50 came out at 300 nM.
With `Cn1c(Nc2cc(CNC(=O)c3c(Cl)cncc3Cl)ccc2Cl)nc2cc(Cl)c(N3CCCC(C(F)(F)F)C3)cc21` (centres unmarked) [Example 54], the half-maximal inhibitory concentration (IC50) came out at 6.6 nM.
As to `Cn1c(Nc2cc(CNC(=O)C(N)C(F)(F)F)ccc2Cl)nc2cc(Cl)c(N3CCCC(C(F)(F)F)C3)cc21` (centres unmarked) [Example 65], the 50% inhibitory concentration (IC50) worked out at 15 nM.
To `Cn1c(Nc2cc(CNC(=O)C3(C)COC3)ccc2Cl)nc2cc(Cl)c(N3CCCC(C(F)(F)F)C3)cc21` (centres unmarked) [Example 66] belongs 10 nM; to `Cn1c(Nc2cc(CNC(=O)c3c(Cl)cccc3Cl)ccc2Cl)nc2cc(Cl)c(N3CCCC(C(F)(F)F)C3)cc21` (centres unmarked) [Example 68], 4 nM.
Take `Cn1c(Nc2cc(CNC(=O)c3c(F)cccc3C(F)(F)F)ccc2Cl)nc2cc(Cl)c(N3CCCC(C(F)(F)F)C3)cc21` (centres unmarked) [Example 69]: the 50% inhibitory concentration (IC50) came out at 9 nM.
The result for `Cn1c(Nc2cc(CNC(=O)C3(C(F)(F)F)CC3)ccc2Cl)nc2cc(Cl)c(N3CCC(C(F)(F)F)CC3)cc21` [Example 71, N-{4-Chloro-3-[5-chloro-1-methyl-6-(4-trifluoromethyl-piperidin-1-yl)-1H-benzimidazol-2-ylamino]benzyl}-1-trifluoromethyl-cyclopropaneamide] reads 2.5 nM.
